Results published in the supplement of paper PMC10307832.

What was measured:
Test in all cases: relative viability (nuclei count vs DMSO), 5 days (fraction); higher = more cells survive
Sulindac = compound: CC1=C(CC(=O)O)c2cc(F)ccc2/C1=C\c1ccc([S+](C)[O-])cc1 [Sulindac]
Outline: (§1)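 Vehicle-anchored 1536-well plates of lung cancer cell lines, held overnight at 37 °C, were pinned with five library-drug doses (not always all listed) spaced by √10. No medium change followed over the next 5 days, after which the cells were fixed, permeabilised and Hoechst-stained together and imaged at 4×. Nuclei were counted with MetaXpress, and viability is treated-well nuclei over vehicle-well nuclei, taken as a median across plates. Plates passed with control CV below 25% and at least one doubling.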

Staurosporine = compound: CN[C@@H]1C[C@H]2O[C@@](C)([C@@H]1OC)n1c3ccccc3c3c4c(c5c6ccccc6n2c5c31)C(=O)NC4 [Staurosporine]
Outline: as §1

5-Fluorouracil = compound: O=c1[nH]cc(F)c(=O)[nH]1 [5-Fluorouracil]
Outline: as §1

[1] = compound: CN[C@@H]1C[C@H]2O[C@@](C)([C@@H]1OC)n1c3ccccc3c3c4c(c5c6ccccc6n2c5c31)C(=O)NC4 [Staurosporine] + Cc1nc(Nc2ncc(C(=O)Nc3c(C)cccc3Cl)s2)cc(N2CCN(CCO)CC2)n1 [Dasatinib] (partner 0.075 µM)
Outline: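 Relative viability is defined as nuclei in treated wells over nuclei in vehicle wells. Duplicate plates were run and medians reported. Lung cancer cell lines in 1536-well plates were dosed by pin tool one day after seeding, with one drug or with a fixed anchor-drug dose plus five library-drug doses (not always all listed) in √10 steps, and nuclei were counted after 5 days.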

Cell Line	relative viability (Sulindac; 0.08 µM)	relative viability (Sulindac; 0.253 µM)	relative viability (Sulindac; 0.8 µM)	relative viability (Sulindac; 2.53 µM)	relative viability (Sulindac; 8 µM)	relative viability (Staurosporine; 0.005 µM)	relative viability (Staurosporine; 0.05 µM)	relative viability (Staurosporine; 0.1581 µM)	relative viability (Staurosporine; 0.5 µM)	relative viability (5-Fluorouracil; 0.02 µM)	relative viability (5-Fluorouracil; 0.2 µM)	relative viability (5-Fluorouracil; 0.6325 µM)	relative viability (5-Fluorouracil; 2 µM)	relative viability ([1]; first compound 0.005 µM)	relative viability ([1]; first compound 0.01581 µM)	relative viability ([1]; first compound 0.05 µM)	relative viability ([1]; first compound 0.1581 µM)	relative viability ([1]; first compound 0.5 µM)	relative viability (Staurosporine; 0.01581 µM)
ChaGo-K-1	1.09	1.02	0.863	1.03	1.12	1.03	0.871	0.307	0.228	1.01	0.964	0.766	0.612	0.621	0.491	0.475	0.147	0.128	–
EBC-1	1.12	1.14	0.705	1.09	1.1	0.623	0.239	0.2	0.12	1.03	0.979	0.934	0.619	–	–	–	–	–	0.395
EKVX	1.05	1.01	0.832	0.941	1.08	0.758	0.351	0.256	0.146	0.835	0.312	–	0.176	0.666	0.282	0.201	0.202	0.161	0.417
EMC-BAC-2	1.09	0.976	0.869	0.968	1.19	0.437	0.222	0.21	0.259	1.07	1.06	1.03	0.924	0.213	0.197	0.198	0.167	0.152	0.213
EPLC-272H	0.97	0.797	0.762	0.857	1.18	0.781	0.247	0.106	0.0993	0.732	0.706	0.397	0.262	0.179	0.0602	0.0709	0.0723	0.103	0.192
H3255	0.943	0.968	0.884	1	1.1	0.596	0.363	0.267	0.145	0.901	1.09	0.89	0.712	0.271	0.247	0.255	0.19	0.248	0.432
HARA	1.1	1.01	0.899	0.979	1.11	0.696	0.36	0.219	0.108	1.03	1.33	1	0.573	0.289	–	0.127	0.145	0.0757	0.387
HCC-15	1.14	1.07	0.843	0.986	1.13	0.92	0.636	0.137	0.119	1.04	1.11	0.711	0.413	0.494	–	0.229	0.11	0.0769	–
HCC-44	0.986	1.01	1.02	0.935	1.04	1.01	0.404	0.228	0.14	1.05	0.941	0.55	0.349	–	–	–	–	–	0.384
